Measured values published in patent publication US6572877B2, “Worm food composition” (Legend Laboratories Corporation, priority 2001, dated 2003).

System: Lumbricus terrestris
Assay: Feeding experiment with Lumbricus terrestris (Canadian night crawler), cartons of one dozen worms plus bedding
Format: in vivo
Conditions: Carton 1
Description: The first experiment was conducted with Lumbricus terrestris. Lumbricus terrestris typically measures from 90-300 mm by 6-10 mm having a dark anterior and a pale flattened posterior. These worms live in an anecic habit meaning that they build permanent, vertical burrows that extend typically 2.5 m into the soil. Such worms feed in decaying organic material and grow and breed very slowly compared to other worms. This worm must have the burrow to return to and simply won't perform well in a worm bin. In their natural habitat such worms can live up to six years.
In the experiment, five cartons containing one dozen worms plus bedding each were kept in the refrigerator at 36° F. to 40° F. prior to the beginning the experiment. After refrigeration the following compounds were added to the specified cartons. Carton 1 was treated with a stock solution of 5 ml xanthene acid yellow 73 from a stock solution of 0.5 g xanthene acid yellow 73 in 500 ml distilled water. Carton 2 was treated with 5 grams of a stock mixture having 40 grams corn meal and 1 gram xanthene acid yellow 73. This mixture was simply added to Carton 2 and was not agitated. Carton 3 was treated with 5 grams of the same stock mixture and shaken gently to evenly disperse the mixture in Container 3. Carton 4 was treated with 5 grams from a mixture of 40 grams corn meal and 2 grams xanthene acid yellow 73 and was not agitated. […]

For `O=C([O-])c1ccccc1-c1c2ccc(=O)cc-2oc2cc([O-])ccc12.[Na+].[Na+]` [xanthene acid yellow 73], the “color of the worm” value (5 ml of stock solution 0.5 g in 500 ml distilled water, after 7 days) was “no change in the color of the worm” and the “condition of the worms” value (5 ml of stock solution, after six weeks) was “weak and dying from lack of nutrition”.
